SMILES: COC(=O)[C@@H](N)CS.Cl
- solubility (mole fraction) (in 1,4-dioxane, 288.15 K): 0.00083
- solubility (mole fraction) (in 1,4-dioxane, 293.15 K): 0.001
- solubility (mole fraction) (in 1,4-dioxane, 298.15 K): 0.0013
- solubility (mole fraction) (in 1,4-dioxane, 303.15 K): 0.00147
- solubility (mole fraction) (in 1,4-dioxane, 308.15 K): 0.00184
- solubility (mole fraction) (in 1,4-dioxane, 313.15 K): 0.00211
- solubility (mole fraction) (in 1,4-dioxane, 318.15 K): 0.00232
- solubility (mole fraction) (in 1,4-dioxane, 323.15 K): 0.00269
- solubility (mole fraction) (in 1,4-dioxane, 328.15 K): 0.00305
- solubility (mole fraction) (in 1,4-dioxane, 333.15 K): 0.00349
- solubility (mole fraction) (in 2-butanone, 283.15 K): 0.00065
- solubility (mole fraction) (in 2-butanone, 288.15 K): 0.00084
- solubility (mole fraction) (in 2-butanone, 293.15 K): 0.00108
- solubility (mole fraction) (in 2-butanone, 298.15 K): 0.00132
- solubility (mole fraction) (in 2-butanone, 303.15 K): 0.00164
- solubility (mole fraction) (in 2-butanone, 308.15 K): 0.00192
- solubility (mole fraction) (in 2-butanone, 313.15 K): 0.00225
- solubility (mole fraction) (in 2-butanone, 318.15 K): 0.0025
- solubility (mole fraction) (in 2-butanone, 323.15 K): 0.00333
- solubility (mole fraction) (in 2-butanone, 328.15 K): 0.00418
- solubility (mole fraction) (in 2-butanone, 333.15 K): 0.00573
- solubility (mole fraction) (in acetone, 283.15 K): 0.00062
- solubility (mole fraction) (in acetone, 288.15 K): 0.00073
- solubility (mole fraction) (in acetone, 293.15 K): 0.00082
- solubility (mole fraction) (in acetone, 298.15 K): 0.00087
- solubility (mole fraction) (in acetone, 303.15 K): 0.00093
- solubility (mole fraction) (in acetone, 308.15 K): 0.00101
- solubility (mole fraction) (in acetone, 313.15 K): 0.00111
- solubility (mole fraction) (in acetone, 318.15 K): 0.00124
- solubility (mole fraction) (in acetone, 323.15 K): 0.00152
- solubility (mole fraction) (in acetonitrile, 283.15 K): 0.00021
- solubility (mole fraction) (in acetonitrile, 288.15 K): 0.00029
- solubility (mole fraction) (in acetonitrile, 293.15 K): 0.00032
- solubility (mole fraction) (in acetonitrile, 298.15 K): 0.0004
- solubility (mole fraction) (in acetonitrile, 303.15 K): 0.00043
- solubility (mole fraction) (in acetonitrile, 308.15 K): 0.0005
- solubility (mole fraction) (in acetonitrile, 313.15 K): 0.00062
- solubility (mole fraction) (in acetonitrile, 318.15 K): 0.00091
- solubility (mole fraction) (in acetonitrile, 323.15 K): 0.00098
- solubility (mole fraction) (in acetonitrile, 328.15 K): 0.00104
- solubility (mole fraction) (in acetonitrile, 333.15 K): 0.00123
- solubility (mole fraction) (in dichloromethane, 283.15 K): 5e-05
- solubility (mole fraction) (in dichloromethane, 288.15 K): 7e-05
- solubility (mole fraction) (in dichloromethane, 293.15 K): 9e-05
- solubility (mole fraction) (in dichloromethane, 298.15 K): 0.00011
- solubility (mole fraction) (in dichloromethane, 303.15 K): 0.00013
- solubility (mole fraction) (in ethanol, 283.15 K): 0.0232
- solubility (mole fraction) (in ethanol, 288.15 K): 0.0257
- solubility (mole fraction) (in ethanol, 293.15 K): 0.029
- solubility (mole fraction) (in ethanol, 298.15 K): 0.0337
- solubility (mole fraction) (in ethanol, 303.15 K): 0.0428
- solubility (mole fraction) (in ethanol, 308.15 K): 0.0471
- solubility (mole fraction) (in ethanol, 313.15 K): 0.0536
- solubility (mole fraction) (in ethanol, 318.15 K): 0.0622
- solubility (mole fraction) (in ethanol, 323.15 K): 0.0722
- solubility (mole fraction) (in ethanol, 328.15 K): 0.0864
- solubility (mole fraction) (in ethanol, 333.15 K): 0.1
- solubility (mole fraction) (in ethyl acetate, 283.15 K): 7e-05
- solubility (mole fraction) (in ethyl acetate, 288.15 K): 0.0001
- solubility (mole fraction) (in ethyl acetate, 293.15 K): 0.00012
- solubility (mole fraction) (in ethyl acetate, 298.15 K): 0.00015
- solubility (mole fraction) (in ethyl acetate, 303.15 K): 0.00018
- solubility (mole fraction) (in ethyl acetate, 308.15 K): 0.00023
- solubility (mole fraction) (in ethyl acetate, 313.15 K): 0.00027
- solubility (mole fraction) (in ethyl acetate, 318.15 K): 0.0003
- solubility (mole fraction) (in ethyl acetate, 323.15 K): 0.00032
- solubility (mole fraction) (in ethyl acetate, 328.15 K): 0.00042
- solubility (mole fraction) (in ethyl acetate, 333.15 K): 0.00052
- solubility (mole fraction) (in isobutanol, 283.15 K): 0.00393
- solubility (mole fraction) (in isobutanol, 288.15 K): 0.00437
- solubility (mole fraction) (in isobutanol, 293.15 K): 0.00478
- solubility (mole fraction) (in isobutanol, 298.15 K): 0.00541
- solubility (mole fraction) (in isobutanol, 303.15 K): 0.00634
- solubility (mole fraction) (in isobutanol, 308.15 K): 0.00718
- solubility (mole fraction) (in isobutanol, 313.15 K): 0.0086
- solubility (mole fraction) (in isobutanol, 318.15 K): 0.00972
- solubility (mole fraction) (in isobutanol, 323.15 K): 0.0125
- solubility (mole fraction) (in isobutanol, 328.15 K): 0.0162
- solubility (mole fraction) (in isobutanol, 333.15 K): 0.0196
- solubility (mole fraction) (in isopropanol, 283.15 K): 0.0036
- solubility (mole fraction) (in isopropanol, 288.15 K): 0.00389
- solubility (mole fraction) (in isopropanol, 293.15 K): 0.00422
- solubility (mole fraction) (in isopropanol, 298.15 K): 0.00512
- solubility (mole fraction) (in isopropanol, 303.15 K): 0.00585
- solubility (mole fraction) (in isopropanol, 308.15 K): 0.00648
- solubility (mole fraction) (in isopropanol, 313.15 K): 0.00806
- solubility (mole fraction) (in isopropanol, 318.15 K): 0.0097
- solubility (mole fraction) (in isopropanol, 323.15 K): 0.0127
- solubility (mole fraction) (in isopropanol, 328.15 K): 0.0153
- solubility (mole fraction) (in isopropanol, 333.15 K): 0.0188
- solubility (mole fraction) (in methanol, 283.15 K): 0.0906
- solubility (mole fraction) (in methanol, 288.15 K): 0.0944
- solubility (mole fraction) (in methanol, 293.15 K): 0.106
- solubility (mole fraction) (in methanol, 298.15 K): 0.114
- solubility (mole fraction) (in methanol, 303.15 K): 0.127
- solubility (mole fraction) (in methanol, 308.15 K): 0.139
- solubility (mole fraction) (in methanol, 313.15 K): 0.155
- solubility (mole fraction) (in methanol, 318.15 K): 0.168
- solubility (mole fraction) (in methanol, 323.15 K): 0.187
- solubility (mole fraction) (in methanol, 328.15 K): 0.212
- solubility (mole fraction) (in methanol, 333.15 K): 0.257
- solubility (mole fraction) (in n-butanol, 283.15 K): 0.00537
- solubility (mole fraction) (in n-butanol, 288.15 K): 0.00599
- solubility (mole fraction) (in n-butanol, 293.15 K): 0.0067
- solubility (mole fraction) (in n-butanol, 298.15 K): 0.00847
- solubility (mole fraction) (in n-butanol, 303.15 K): 0.0106
- solubility (mole fraction) (in n-butanol, 308.15 K): 0.0124
- solubility (mole fraction) (in n-butanol, 313.15 K): 0.0136
- solubility (mole fraction) (in n-butanol, 318.15 K): 0.0164
- solubility (mole fraction) (in n-butanol, 323.15 K): 0.0198
- solubility (mole fraction) (in n-butanol, 328.15 K): 0.0238
- solubility (mole fraction) (in n-butanol, 333.15 K): 0.0306
- solubility (mole fraction) (in n-pentanol, 283.15 K): 0.0039
- solubility (mole fraction) (in n-pentanol, 288.15 K): 0.00462
- solubility (mole fraction) (in n-pentanol, 293.15 K): 0.0054
- solubility (mole fraction) (in n-pentanol, 298.15 K): 0.00662
- solubility (mole fraction) (in n-pentanol, 303.15 K): 0.00824
- solubility (mole fraction) (in n-pentanol, 308.15 K): 0.00924
- solubility (mole fraction) (in n-pentanol, 313.15 K): 0.0111
- solubility (mole fraction) (in n-pentanol, 318.15 K): 0.0125
- solubility (mole fraction) (in n-pentanol, 323.15 K): 0.0149
- solubility (mole fraction) (in n-pentanol, 328.15 K): 0.0187
- solubility (mole fraction) (in n-pentanol, 333.15 K): 0.0236
- solubility (mole fraction) (in n-propanol, 283.15 K): 0.00805
- solubility (mole fraction) (in n-propanol, 288.15 K): 0.00883
- solubility (mole fraction) (in n-propanol, 293.15 K): 0.0106
- solubility (mole fraction) (in n-propanol, 298.15 K): 0.0124
- solubility (mole fraction) (in n-propanol, 303.15 K): 0.0145
- solubility (mole fraction) (in n-propanol, 308.15 K): 0.0161
- solubility (mole fraction) (in n-propanol, 313.15 K): 0.0193
- solubility (mole fraction) (in n-propanol, 318.15 K): 0.0219
- solubility (mole fraction) (in n-propanol, 323.15 K): 0.0272
- solubility (mole fraction) (in n-propanol, 328.15 K): 0.0306
- solubility (mole fraction) (in n-propanol, 333.15 K): 0.0384
- solubility (mole fraction) (in sec-butanol, 283.15 K): 0.00252
- solubility (mole fraction) (in sec-butanol, 288.15 K): 0.00265
- solubility (mole fraction) (in sec-butanol, 293.15 K): 0.00283
- solubility (mole fraction) (in sec-butanol, 298.15 K): 0.00372
- solubility (mole fraction) (in sec-butanol, 303.15 K): 0.00416
- solubility (mole fraction) (in sec-butanol, 308.15 K): 0.00455
- solubility (mole fraction) (in sec-butanol, 313.15 K): 0.00513
- solubility (mole fraction) (in sec-butanol, 318.15 K): 0.0063
- solubility (mole fraction) (in sec-butanol, 323.15 K): 0.0082
- solubility (mole fraction) (in sec-butanol, 328.15 K): 0.00958
- solubility (mole fraction) (in sec-butanol, 333.15 K): 0.0112
